Values of other authors, collected in patent US10759750B2, “Beta lactams as modulators of glutamate uptake and methods for use thereof” (Temple University—Of The Commonwealth System of Higher …, priority 2016, dated 2020).
Read-outs that look alike come from different tables or passages of the source.

Key:
[1] = test system: amyotrophic lateral sclerosis (ALS); conditions: ALS patients; 50 mg of Riluzole daily and palliative drugs; after 15 months of treatment

SMILES | increase in life expectancy [1] | free, unbound cerebrospinal fluid/plasma ratio (based on AUCs (Lutsar and Friedland, 2000)) [%] | free, unbound cerebrospinal fluid/plasma ratio (based on Cmax (Chadwick et al., 1983))
Nc1nc2ccc(OC(F)(F)F)cc2s1 [Riluzole] | 2-3 months | – | –
CO/N=C(\C(=O)N[C@@H]1C(=O)N2C(C(=O)O)=C(CSc3nc(=O)c(=O)[nH]n3C)CS[C@H]12)c1csc(N)n1 [ceftriaxone] | – | 1 | 2-13%
